Measurements from a melting point compilation (Tetko et al.; mined from patent text by program, amines drawn as free bases though some values may be those of a salt).

`COc1ccc(-n2nc(Sc3ccc(C(C)(C)C)cc3)c(C)c(C#N)c2=O)cc1` showed a melting point of 186 to 188 °C. `CC[C@H](C)[C@H](NC(=O)Nc1cccc(C)c1)C(=O)N[C@H](CO)Cc1c[nH]c2ccccc12` showed a melting point of 185 to 186 °C. `COc1ccc(OC)c([Si](C)(C)COc2cc(C(C)(C)C)c(O)c(C(C)(C)C)c2)c1` showed a melting point of 103 °C. Work on `CC(C)(C)OC(=O)NCCCn1c2c(c3ccc(NCC(=O)O)cc3c1=O)C(=O)c1ccccc1-2` yielded a melting point of 190 to 192 °C. `CCCCc1nc(=O)c2cc(C#C[Si](C)(C)C)c(F)cc2[nH]1` gave a melting point of 192 °C. In the case of `CCCCOC(=O)C(NC(=O)c1cc([N+](=O)[O-])cc([N+](=O)[O-])c1)C(C)C` (stereo not drawn), the melting point is reported as 88 to 91 °C. In the case of `Cc1nc(-c2n[nH]c(Cc3ccccc3)n2)sc1C(=O)NCc1ccccc1`, the melting point is reported as 235 to 237 °C. `CC1C=C(c2nc3cccc(F)c3s2)C=CC1=N` (stereo not drawn) showed a melting point of 175 to 177 °C. Work on `COC(=O)C(O)C(CC(C)C)NCc1ccccc1` (stereo not drawn) yielded a melting point of 89 to 90 °C. In the case of `Nc1ncnc2c(C3OC(CO)C(O)C3O)[nH]nc12` (stereo not drawn), the melting point is reported as 141 to 142 °C. `COc1ccc(C(=O)C=Cc2ccc(N(C)C)cc2)c(OC)c1OC` gave a melting point of 88 to 89 °C. For `CC(C)c1sc2ncnc(N)c2c1-c1ccc([N+](=O)[O-])cc1`, the melting point was > 260 °C. `CC(C)(C)OC(=O)NCCS(=O)(=O)Nc1ccc2c(c1)C(=O)Nc1cccnc1N2` showed a melting point of 195 to 198 °C. In the case of `CS(=O)(=O)c1ccc(C(=O)Nc2ccc(Cl)c(-c3ncc(C(=O)NO)cn3)c2)c(Cl)c1`, the melting point is reported as 170 to 172 °C. `CC(=O)CNC(=O)Cc1ccccc1` showed a melting point of 126 °C. Work on `CCOC(=O)CCNC(=O)C(Cc1ccc(-c2ccccc2)cc1)N(CP(=O)(O)O)C(OC(=O)CC)C(C)C` (stereo not drawn) yielded a melting point of 154 to 158 °C. `Cc1cc(-c2ccc(C#N)cc2)nc(-c2cccc(-c3cccc(S(N)(=O)=O)c3)n2)n1` showed a melting point of 255 °C. For `CC#CC(=O)N[C@H]1CC[C@H](CCN2CCC(c3cccc4c3CCO4)CC2)CC1`, the melting point was 195 °C. With `CCN(CC)CCNc1ccc(C=O)c2sc3ccc(Br)cc3c(=O)c12` the melting point was 145 to 146 °C. For `C=CCN1C(=O)N(Cc2c(C)c(CN3C(=O)N(CC=C)C(=O)C3(C)C)c(C)c(CN3C(=O)N(CC=C)C(=O)C3(C)C)c2C)C(C)(C)C1=O`, the melting point was 150 to 155 °C. `CCCn1c(=O)c2[nH]c(/C=C/c3cccnc3)nc2n(CCC)c1=O` showed a melting point of 265 to 267 °C. With `CS(=O)(=O)c1ccc(-c2cc3cccccc-3c2-c2ccccc2)cc1` the melting point was 139 to 140 °C. For `CCOc1cccc(-c2cn(C)cc(-c3ccccc3)c2=O)c1`, the melting point was 133 to 135 °C. `O=C(O)C[C@H](NC(=O)CNC(=O)c1csc(NC(=O)NCc2ccccn2)n1)C(=O)NCc1ccccn1` showed a melting point of 164 °C. For `COc1ccc(-c2cc(F)c(F)cc2-c2ccc(S(N)(=O)=O)cc2)cc1C`, the melting point was 120 to 122 °C. `CSC1C(=O)Nc2ccc(Oc3cc(F)c(C(F)(F)F)c(Cl)c3)cc21` (stereo not drawn) gave a melting point of 137 to 142 °C. In the case of `Nc1c(NCCSCc2csc(CN3CCCCC3)c2)c(=O)c1=O`, the melting point is reported as 236 to 238 °C. Work on `CO[C@@H](Cc1ccc(C#CCOc2ccc(-c3ccccc3)cc2)cc1)C(=O)O` yielded a melting point of 111 to 112 °C. In the case of `COC(=O)NCCc1ccc(C(=O)OC)c(S(N)(=O)=O)c1`, the melting point is reported as 146 to 149 °C. In the case of `CCOC(=O)NC(=O)CN(C)C(=O)c1c(F)ccc2c(C(F)(F)F)c(OC)ccc12`, the melting point is reported as 130 to 132 °C. For `CC(=O)COc1ccc2ccc(Oc3c(Cl)cc(C(F)(F)F)cc3Cl)cc2c1`, the melting point was 132 °C. `CC(C)c1nc(-c2cc3cc(OCCNC[C@H](O)c4cccc(Cl)c4)ccc3o2)no1` showed a melting point of 84 to 87 °C. In the case of `O=C1NC(=O)C(c2cccc3ccsc23)O1` (stereo not drawn), the melting point is reported as 130 to 132 °C. For `COC(=O)c1cc(F)c(Cl)nc1Nc1ccc(F)cc1F`, the melting point was 137 to 139 °C. Work on `O=C1NC(NCC2CC2)=N/C1=C\c1c[nH]c2ncc(F)cc12` yielded a melting point of 312 °C. With `OC(C#CCN1CCC(O)(c2ccc(Cl)cc2)CC1)c1ccc(F)cc1` (stereo not drawn) the melting point was 145 to 146 °C. With `CN1CCN(C(=O)Cc2c(-c3ccc(Cl)cc3)nc3ccccn23)CC1` the melting point was 175 °C. For `COCc1cc([N+](=O)[O-])c(Cl)cc1C#N`, the melting point was 57 to 59 °C. `COC1(c2cc(F)cc(S(=O)(=O)c3ccc4c(ccc(=O)n4C)c3)c2)CCOC(C)C1` (stereo not drawn) gave a melting point of 85 to 88 °C. Compound `COc1ccc(CN2CCc3cc(O)ccc3C2)cc1` has a melting point of 158 to 160 °C. For `CC(C)(O)c1cccc(-c2ccc3nc(-c4ccc(Cl)cc4)cn3c2)c1Cl`, the melting point was 230 to 231 °C. Work on `COc1ccc(C(C)(C)C)cc1C(=O)NCCc1ccc(OC)c(S(N)(=O)=O)c1` yielded a melting point of 165 to 168 °C. For `CN1CC(C(=O)c2coc(Cc3ccc(F)cc3)c2)=C(O)C1=O`, the melting point was 158 to 160 °C. `O=C(CCC1CC1)N1C(=O)OC[C@@H]1Cc1ccccc1` showed a melting point of 42 to 43 °C. Work on `CC=C(NC(=O)CCC1CCCC1)C(=O)O` yielded a melting point of 180 to 182 °C. `COc1ccc(-c2c3c(cc4ccc5c(c24)OCO5)C(=O)NC3=O)cc1` gave a melting point of 311 to 313 °C. `O=C1c2ccccc2S(=O)(=O)N1CCCCOc1ccc(O)cc1` showed a melting point of 107 to 109 °C. In the case of `CCOC(=O)c1nc(NC)sc1C(=O)C(C)Br` (stereo not drawn), the melting point is reported as 104 to 106 °C. Compound `O=C(c1ccc(F)cc1)C1CCN(Cc2ccc3ccccc3c2)CC1` has a melting point of 131 to 134 °C. Compound `CCOC(=O)c1cccc(-c2ccc3c(c2)N(C(=O)Cc2cccc(C(F)(F)F)c2)CC3)c1` has a melting point of 222 to 223 °C. `Oc1cc2cc(C3CCCCC3)sc2c(Cl)c1Cl` showed a melting point of 59 to 60 °C. `COC1CCC2C3C(C)CC4=CC(=O)C(C)CC4(C)C3CCC12C` (stereo not drawn) gave a melting point of 123 to 126 °C. Compound `CN1CCN(C(=O)[C@H]2CC[C@H](c3[nH]nc4c3C(=O)c3c(NC(=O)NN5CCOCC5)cccc3-4)CC2)CC1` has a melting point of 228 to 230 °C. In the case of `CN(C(=O)c1cc(=O)n(C)c2ccc(C(O)(c3ccc(Cl)cc3)c3cncn3C)cc12)c1cccc(Cl)c1` (stereo not drawn), the melting point is reported as 218 °C. `O=c1ccc(-c2c(-c3ccccc3)nn3ccccc23)nn1C1CCNCC1` showed a melting point of 115 to 117 °C. `CCS(=O)(=O)c1ccc(F)c(C#Cc2cc(Cl)ccc2OCC(=O)O)c1` gave a melting point of 165 to 169 °C. With `CCCCCCCCCCOc1ccc(CO)cc1OCCCCCCCCCC` the melting point was 41 to 42.5 °C. `COc1nc(N)nc2c1ncn2C1OC(CO)C(OC(=O)C(C)(C)C)C1O` (stereo not drawn) showed a melting point of 113 to 115 °C. In the case of `COC(=O)C(Cl)Cc1ccc(-n2c(=O)cc(C(F)(F)F)n(C)c2=O)c(F)c1` (stereo not drawn), the melting point is reported as 101 to 103 °C. `Cc1oc(-c2ccccc2)nc1CCOc1ccc(C=CC=CC=C2OC(=O)NC2=O)cc1` gave a melting point of 209 to 211 °C. With `Cc1ccc(C(=O)Cc2ccccc2)cc1` the melting point was 107 to 111 °C. In the case of `CCCCc1nc2c(N)nc3cc(-c4ccc(OC)cc4OC)ccc3c2n1CC(C)C`, the melting point is reported as 187 to 189 °C. `CCOC(=O)c1cnc2c(c(C)nn2C)c1N(C)S(=O)(=O)c1ccc(Oc2ccncc2)cc1` showed a melting point of 117 to 119 °C. For `O=C(O)c1cc2cc([N+](=O)[O-])ccc2[nH]c1=O`, the melting point was > 310 °C. In the case of `CCOP(=O)(/C=C/c1cn(CC)nc1OCc1ccc(OCc2nc(-c3ccco3)oc2C)c(OC)c1)OCC`, the melting point is reported as 82 to 84 °C. In the case of `O=C(Nc1ccccc1)N1CCN=C1CSc1ccccc1`, the melting point is reported as 117 to 119 °C. Compound `COC(=O)c1cc2cc(OC)ccc2cc1O` has a melting point of 129 to 131 °C. In the case of `O=C(O)CCCNc1ccccc1CNC(=O)C1Cc2ccccc2N1S(=O)(=O)c1ccc(-c2cccc(C(F)(F)F)c2)cc1` (stereo not drawn), the melting point is reported as 77 to 81 °C. Compound `Cc1cc(-c2c[nH]cn2)ccc1N=CNC#N` has a melting point of 200 to 202 °C. `Cc1cc(-c2ccc(-c3ccco3)cc2)n(-c2ccc(S(C)(=O)=O)cc2)c1` gave a melting point of 193 to 194 °C. Work on `Clc1ncc(C(c2ccccc2)c2ccccc2)cc1C(c1ccccc1)c1ccccc1` yielded a melting point of 131 to 133 °C. In the case of `CC(NC(=O)c1c[nH]c2ncc(-c3nn(CC(O)CO)c4cc(Cl)ccc34)nc12)C(=O)N1CC(C#N)C1` (stereo not drawn), the melting point is reported as 165 to 180 °C. `CCCNCC(O)COc1ccccc1CCCc1cccc2c1CC(=O)N2` (stereo not drawn) gave a melting point of 122 °C. `CN=C1SCC(O)(c2ccc(Cl)c(S(=O)(=O)N(C)C)c2)N1C` (stereo not drawn) showed a melting point of 157 to 158 °C. `N#Cc1ccc(-c2ncccc2O)cc1` gave a melting point of 245 to 246 °C. For `CCCCOC(=O)C=CCOc1ccc(F)c(C(N)=O)c1F`, the melting point was < 40 °C. Work on `O=C1c2c(O)ccc(O)c2C(=O)c2c(NCCN3CCCC3)ccc(NCCN3CCCC3)c21` yielded a melting point of 193 to 196 °C. With `CC(=O)N1C(=O)C(C(=O)c2cccnc2)c2ccccc21` (stereo not drawn) the melting point was 141 to 142 °C. In the case of `O=C1CCCN1C(=O)c1ccc(O)cc1`, the melting point is reported as 179 to 182 °C. With `CCc1noc(-c2cn(-c3ccccn3)cn2)n1` the melting point was 162 to 163 °C. With `FC(F)(F)c1ccc(-c2ncc(CCl)s2)cc1` the melting point was 55 to 57 °C. `CCOC(=O)c1cn(CC)c2c(F)c(F)c(F)c(C)c2c1=O` gave a melting point of 197 to 198 °C. For `CNc1nc(SC)ncc1C`, the melting point was 134 °C. `Cn1c(C(F)(F)F)cc(=O)n(-c2cc(Oc3ncccn3)c(Cl)cc2F)c1=O` gave a melting point of 192 to 194 °C. For `S=C(Nc1ccc(Cl)cc1)Nc1ncccc1OCc1ccccc1`, the melting point was 140 to 143 °C. For `Nc1nc(N)c(-c2ccc(Cl)cc2Cl)c(C(F)(F)F)n1`, the melting point was 220 to 221 °C. With `Cn1nc2n(c1=O)-c1ccc(Cl)nc1C(c1ccccc1Cl)=NC2` the melting point was 200 to 202 °C. With `O=C1N(c2ccc(Br)cc2F)C(=S)C2CCCCC12O` (stereo not drawn) the melting point was 163 to 164 °C. Compound `CO[C@]12C[C@@H](CN3CCC(O)(c4ccc(Cl)c(C(F)(F)F)c4)CC3)CN(C)[C@@H]1Cc1c[nH]c3cccc2c13` has a melting point of 143 to 146 °C. In the case of `CCOC(=O)C1=C(C)NC(=S)N(C(=O)OCC)C1c1cccc(OCc2ccccc2)c1` (stereo not drawn), the melting point is reported as 119 to 121 °C. Work on `COC(=O)c1nc(Cl)cnc1N=S(C)C` yielded a melting point of 167 to 169 °C. Compound `Clc1ccc(-c2cn3cc(Br)ccc3n2)cc1` has a melting point of 210 to 211 °C. Work on `Cc1cn2nc(Cl)ccc2n1` yielded a melting point of 131 °C. With `COc1ccc(N2CCOCC2)c2sc(C(=O)NCC(=O)c3ccsc3)nc12` the melting point was 170 °C. In the case of `CC(=O)C(CCS(C)(=O)=O)(CCS(C)(=O)=O)C(C)=O`, the melting point is reported as 162 °C. For `COCCOC1=CC(=O)C(Nc2ncnc3cc(OCCOC)c(OC)cc23)=CC1=O`, the melting point was 211 to 212 °C. `Cn1c(=O)c([N+](=O)[O-])c(N2CCN(C(=O)c3cccs3)CC2)c2ccccc21` gave a melting point of 105 °C. With `COC(=O)c1ccc(CNC(=O)OCc2ccccc2)cc1O` the melting point was 91 to 92 °C.
